Results: patent US7572770B2, “Use of an interleukin 1 receptor antagonist and/or pyrrolidinedithiocarbamate for the treatment or prophylaxis of type 2 diabetes” (University of Zurich, priority 2002, dated 2009)

Tests used:
Assay type in all cases: cell-based
human islets β-cells = test: β-cell apoptosis (TUNEL, caspase 3 activation) in human islets, leptin/siRNA study; conditions: for cleaved caspase 3 level: leptin
Method: (§1) Islet isolation and cell culture. Islets were isolated from pancreases of ten organ donors at the Department of Surgery, University of Geneva Medical Center, as described (32-34). The islet purity was >95%, as judged by dithizone staining (if this degree of purity was not primarily achieved by routine isolation, islets were handpicked). […] For long-term in vitro studies, the islets were cultured on extracellular matrix-coated plates derived from bovine corneal endothelial cells (Novamed Ltd., Jerusalem, Israel), allowing the cells to attach to the dishes and spread, preserving their functional integrity (7;35). Islets were cultured in CMRL 1066 medium containing 100 U/ml penicillin, 100 μg/ml streptomycin and 10% fetal calf serum (Invitrogen Corporation, Paisley, U.K.), hereafter referred to as culture medium. Two days after plating, when most islets were attached and began to flatten, the medium was changed to culture medium containing 5.5, 11.1 or 33.3 mM glucose. In some experiments, islets were additionally cultured with 5, 10 or 500 nM rh leptin (PeproTech, London, UK), 500 ng/ml rh IL-1Ra (R&D Systems Inc., Minneapolis, Minn.) or 50 nM small interfering RNA (siRNA) as described below.
(§2) RNA interference. RNAs of 21 nucleotides, designed to target human IL-1Ra (5′AUCUGCAGAGGCCUCCGCAtt3′/5′UGCGGAGGCCUCUGCAGAUtt3′) and scrambled siRNA were synthesized by Ambion (Austin, Tex.). siRNAs were transfected using SiPortAmine™ according to the manufacturer's instructions (Ambion).
Western blot analysis. Human islets were maintained in culture medium in nonadherent plastic dishes. One day after isolation, the medium was changed and groups of 200 islets were incubated in culture medium containing 5.5 glucose with or without 10 or 500 nM leptin or 50 nM siRNA. At the end of the incubations, islets were washed in PBS, suspended in 40 μl sample buffer containing 125 mM Tris-HCl (pH 6.8), 4% SDS, 10% glycerol, 0.3% bromphenol blue, 1.8% β-mercaptoethanol and boiled for 5 min. Equivalent amounts of each treatment group were run on 15% SDS polyacrylamide gels. Proteins were electrically transferred to nitrocellulose filters and incubated with biotinylated goat anti-IL-1Ra, mouse anti-caspase 3 (which binds to both, procaspase-3 and activated caspase-3; Pharmingen, San Diego, Calif.), or mouse anti-actin (C-2; Santa Cruz Biotechnology Inc., Santa Cruz, Calif.) antibodies, followed by incubation with horseradish-peroxidase-linked anti-mouse (Santa Cruz Biotechnology Inc.) or streptavidin (Jackson). The emitted light was captured on X-ray film after adding Lumi-Light Western Blotting Substrate (Roche, Basel, Switzerland). As a marker, Kaleidoscope Prestained Standards (Bio Rad, Laboratories inc., Hercules, Calif.) was run in parallel. Between incubations, nitrocellulose membranes were stripped for 30 min at 50° C. in 40 ml of a solution containing 280 μl β-mercaptoethanol, 5 ml 0.5 M Tris-HCl (pH 6.8) and 10% SDS, and then washed for 1 h in Tris-buffered saline containing 0.10/0 Tween-20.
β-cell apoptosis. The free 3′-OH strand breaks resulting from DNA degradation were detected using the terminal deoxynucleotidyl transferase-mediated dUTP nick-end labeling (TUNEL) technique as described in detail (70;76;77). Thereafter, islets were incubated with guinea pig anti-insulin antibody as above, followed by detection using the streptavidin-biotin-peroxidase complex (Zymed Laboratories Inc., South San Francisco, Calif., USA). In parallel to the TUNEL reaction, apoptosis was confirmed by detection of caspase 3 activation as described above (Western blot analysis).

human islets = test: Insulin release and content of human islets, leptin/siRNA study
Method: as §1, §2
Insulin release and content. To determine acute insulin release in response to glucose stimulation, islets were washed in Kreb's ringer bicarbonate buffer (KRB-Hepes, pH 7.4: 4.8 mM KCl, 134 mM NaCl, 5 mM NaHCO3, 1.2 mM MgSO4, 1.2 mM KH2PO4, 1 mM CaCl2, 0.5% BSA, 10 mM HEPES) containing 3.3 mM glucose and pre-incubated for 30 min in the same buffer. The KRB was then discarded and replaced by fresh buffer containing 3.3 mM glucose for 1 h for basal secretion, followed by an additional 1 h of incubation in KRB containing 16.7 mM glucose. Supernatants were collected and frozen for insulin assays. Thereafter, islets were washed with PBS and extracted with 0.18 N HCl in 70% ethanol for 24 h at 4° C. The acid-ethanol extracts were collected for determination of insulin content. Insulin was determined by a human insulin RIA kit (CIS bio international, Gif-Sur-Yvette, France).

IL-1Ra = IL-1Ra release and mRNA in human blood monocytes; conditions: leptin, 15 and 48 hours
Method: Human blood monocytes were isolated as described previously (37), cultured in RPMI 1640 (Invitrogen) containing 100 U/ml penicillin, 100 μg/ml streptomycin and 10% fetal calf serum and exposed to 10 or 500 nM leptin.
RNA extraction and RT-PCR. Islets were cultured in a suspension as described above. Total RNA was extracted using Rneasy mini kit (Qiagen, Basel, Switzerland) and RT-PCR was performed using the Superscript™ II Rnase H-Reverse transcriptase kIT and oligo (dT) (7) (Life technologies, Gaithersburg, Md., USA) according to the instructions from the manufacturers. The following primers were used: 5′[…]3′(SEQ ID. NO. 1)/5′[…]3′ (human IL-1Ra) (SEQ ID.NO. 2) and 5′[…]3′(SEQ ID. NO. 3)/5′[…]3′ (human IL-1β) (SEQ ID. NO. 4). PCR conditions were: denaturation for 30 seconds at 94° C., annealing for 30 seconds at 60° C., and elongation for 30 seconds at 72° C., followed for real time PCR by quantification for 5 seconds at 82° C.; repetition for 40 cycles. Saturation of PCR product occurred between 19 and 33 cycles. […] For quantitative analysis, we used the LightCycler quantitative PCR system (Roche) and performed quantitative PCR with a commercial kit (LightCycler-DNA Master SYBR Green I; Roche). […]
Cytokine release. Cytokine release was evaluated in the culture medium collected before the termination of each experiment using human IL-1β and IL-1Ra ELISA kits (R&D Systems Inc.).

[1] = leptin plus exogenous rh IL-1Ra 500 ng/ml
[2] = plus 500 ng/ml exogenous rhIL-1Ra

Row | Substance | leptin-induced β-cell apoptosis (human islets β-cells; [1]) | β-cell apoptosis induced by 33.3 mM glucose alone (human islets β-cells; [2]) | β-cell apoptosis induced by 33.3 mM glucose and siIL-1Ra (human islets β-cells; [2]) | siIL-1Ra-induced DNA fragmentation (human islets β-cells; siIL-1Ra plus 500 ng/ml exogenous rhIL-1Ra) | β-cell function and insulin content (human islets; [1]) | loss of acute glucose-stimulated insulin release by high glucose and/or siIL-1Ra (human islets; plus exogenous rh IL-1Ra) | insulin content (human islets; siIL-1Ra and/or high glucose plus rh IL-1Ra) | glucose stimulation of insulin release (human islets; siIL-1Ra at 5.5 mM glucose, co-incubation with exogenous rh IL-1Ra) | number of TUNEL-positive β-cells (human islets β-cells; 10 nM leptin, 4 days) | 33.3 mM glucose-induced apoptosis (human islets β-cells; leptin plus 33.3 mM glucose, 4 days) | cleaved caspase 3 level (human islets β-cells; 15 hours) | cleaved caspase 3 level (human islets β-cells; 48 hours) | decrease of chronic insulin secretion during the culture period (human islets; leptin, 4 days) | glucose-stimulated insulin secretion (human islets; leptin, 4 days, 5.5 mM glucose) | insulin content (human islets; leptin, 4 days, 5.5 mM glucose) | IL-1Ra release and mRNA in peripheral blood monocytes (IL-1Ra)
1 | Interleukin 1 receptor antagonist [IL-1Ra] | prevented leptin-induced β-cell apoptosis | protected the β-cells from apoptosis | partially | prevented the effect of siIL-1Ra on DNA fragmentation | restored β-cell function and insulin content | partially prevented those effects | partially restored | restored glucose stimulation | – | – | – | – | – | – | – | –
2 | leptin: rh leptin (PeproTech); protein encoded by the ob gene | – | – | – | – | – | – | – | – | increased the number of TUNEL-positive β-cells | enhanced 33.3 mM glucose-induced apoptosis | did not change baseline cleaved caspase 3 level | an increase became apparent | 41.65% | impaired glucose-stimulated insulin secretion | decreased insulin content | A similar dual effect
